Four molecules from patent publication US20240109917A1 (ACTELION PHARMACEUTICALS LTD, priority 2020, published 2024) can be followed below.

One may read the IC50 as the midpoint of a concentration-inhibition curve.

The target in this experiment is His6-TEV-PDGFRβ (557-1016) (Homo sapiens (Human), UniProt P09619). The experiment can be described thus: PDGFRβ HTRF Assay. It is filed as biochemical. To be noted: read-out: PDGFR HTRF IC50. An outline of the steps: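 Human PDGFRβ (557-1016) pre-incubated with compound for 30 min at RT in pH 7.5 HEPES/MgCl2/EGTA/Brij-35/DTT buffer. Reaction started with ATP and TK-biotin peptide, run 3 h at RT, then quenched with EDTA-containing Eu-cryptate antibody/streptavidin-XL665. HTRF 665/620 nm ratio read after 60 min; percent inhibition relative to DMSO and 10 μM imatinib controls.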
His6-TEV-PDGFRβ (557-1016), sequence (P09619 557-1016): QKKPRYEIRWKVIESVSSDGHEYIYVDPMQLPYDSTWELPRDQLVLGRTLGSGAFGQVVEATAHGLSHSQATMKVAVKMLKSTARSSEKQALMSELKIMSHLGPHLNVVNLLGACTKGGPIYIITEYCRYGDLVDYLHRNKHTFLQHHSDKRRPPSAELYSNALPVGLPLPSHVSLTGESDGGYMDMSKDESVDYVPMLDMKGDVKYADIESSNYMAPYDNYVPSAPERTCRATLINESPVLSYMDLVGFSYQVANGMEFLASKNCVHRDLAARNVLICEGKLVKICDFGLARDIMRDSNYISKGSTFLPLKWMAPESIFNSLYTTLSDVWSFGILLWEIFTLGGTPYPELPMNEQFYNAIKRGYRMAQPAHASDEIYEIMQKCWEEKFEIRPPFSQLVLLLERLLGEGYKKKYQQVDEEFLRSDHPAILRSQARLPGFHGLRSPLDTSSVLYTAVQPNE
On the technique in general: TR-FRET usually uses a lanthanide donor and a delayed reading to cut background.
Regarding `Cc1ncc(NC(=O)OCCN2CC3CCC2C3)cc1NC(=O)c1cnn2cc(-c3cnn(C)c3)sc12` (stereo not shown) [Example 250, 2-(2-azabicyclo[2.2.1]heptan-2-yl)ethyl (6-methyl-5-(2-(1-methyl-1H-pyrazol-4-yl)pyrazolo[5,1-b]thiazole-7-carboxamido)pyridin-3-yl)carbamate], the IC50 is 1.4 nM.
Then `Cc1ncc(NC(=O)OCCN(C)C2CCCCC2)cc1NC(=O)c1cnn2cc(-c3cnn(C)c3)sc12` [Example 251, 2-(cyclohexyl(methyl)amino)ethyl (6-methyl-5-(2-(1-methyl-1H-pyrazol-4-yl)pyrazolo[5,1-b]thiazole-7-carboxamido)pyridin-3-yl)carbamate], with 1.5 nM; and `Cc1ncc(NC(=O)OC2CN(C(C)(C)C)C2)cc1NC(=O)c1cnn2cc(-c3cnn(C)c3)sc12` [Example 252, 1-(tert-butyl)azetidin-3-yl (6-methyl-5-(2-(1-methyl-1H-pyrazol-4-yl)pyrazolo[5,1-b]thiazole-7-carboxamido)pyridin-3-yl)carbamate], with 1.1 nM.
In the case of `COc1ncccc1-c1cn2ncc(C(=O)Nc3cc(NC(=O)OC[C@@H]4CCCN4C)cnc3C)c2s1` [Example 253, (S)-(1-methylpyrrolidin-2-yl)methyl (5-(2-(2-methoxypyridin-3-yl)pyrazolo[5,1-b]thiazole-7-carboxamido)-6-methylpyridin-3-yl)carbamate] it was 0.2 nM.
